The source of these data is PubChem BioAssay (NCI).

Among the test systems are MOLT-4 leukemia; OVCAR-8 ovarian; NCI-H522 lung; SN12C renal; A498 renal; PC-3 prostate; MALME-3M melanoma; NCI-H226 lung; IGROV1 ovarian; UO-31 renal.
What all share (test): NCI-60 cell line screen, 48 h

Several values for one entry are separate records, joined by “and”; a condition that tells them apart may be missing. Equal values may be shown once.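 Test compounds were applied to cells in 96-well plates for 48 hours at 5 doses. Abbreviation: GI50, concentration required for 50% inhibition of growth. TGI denotes the concentration required for complete inhibition of growth.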

With `O=C1NC(=O)C2C3C=CC(C12)C1C2C(=O)NC(=O)C2C31` (centres undefined), the GI50 in the assay with MOLT-4 leukemia was 160 µM; with OVCAR-8 ovarian it was 880 µM; with NCI-H522 lung, 261 µM; in the assay with SN12C renal, 419 µM; in the assay on A498 renal it was 467000 nM; with PC-3 prostate it was 525 µM. Besides, the GI50 with MALME-3M melanoma was more than 785000 nM; in the assay on NCI-H226 lung, more than 484 µM; with IGROV1 ovarian it was more than 770000 nM; in the assay on UO-31 renal, 596 µM. Also, the TGI with MOLT-4 leukemia was 201 µM and 850 µM; with OVCAR-8 ovarian, 206 µM and > 1000 µM; in the assay with NCI-H522 lung it was 235 µM and 864 µM; in the assay with SN12C renal, 250 µM and > 1000 µM; in the assay with A498 renal, 250 µM and > 1000 µM; in the assay with PC-3 prostate, 250 µM and > 1000 µM. The TGI with MALME-3M melanoma was 250 µM and > 1000 µM; in the assay on NCI-H226 lung, 250 µM and > 762 µM; in the assay on IGROV1 ovarian, 248 µM and > 1000 µM; in the assay on UO-31 renal, 250 µM and > 1000 µM.

`O=S(=O)(Nc1ccccc1)c1ccc(C2CC3(Cl)C(Cl)=C(Cl)C2(Cl)C3(Cl)Cl)cc1` (centres undefined): the GI50 was 2.5 µM in the assay on MOLT-4 leukemia; 3.52 µM in the assay with OVCAR-8 ovarian; 2.27 µM with NCI-H522 lung; 1.71 µM with SN12C renal; 2320 nM in the assay with A498 renal; 2.74 µM with PC-3 prostate. Besides, the GI50 in the assay with MALME-3M melanoma was 2530 nM; in the assay with NCI-H226 lung it was 1.87 µM; in the assay with IGROV1 ovarian, 2240 nM; in the assay with UO-31 renal it was 2.09 µM. For the same compound, the TGI was found to be 6.84 µM with MOLT-4 leukemia; 10.9 µM in the assay on OVCAR-8 ovarian; 5.67 µM in the assay on NCI-H522 lung; 3.3 µM in the assay on SN12C renal; 6.29 µM in the assay on A498 renal; 10.2 µM in the assay with PC-3 prostate. The TGI in the assay on MALME-3M melanoma was 7.11 µM; in the assay on NCI-H226 lung, 4.47 µM; with IGROV1 ovarian it was 5.13 µM; in the assay with UO-31 renal it was 6.72 µM.

With `O=C1[C@H](Cc2ccc(O)cc2)N2C(=O)CCN(C(=O)NCc3ccccc3)[C@H]2CN1Cc1cccc2ccccc12`, the GI50 in the assay on MOLT-4 leukemia was 1.67 µM; in the assay on OVCAR-8 ovarian it was 0.959 µM; in the assay on NCI-H522 lung, 0.901 µM; with SN12C renal it was 4.18 µM; in the assay with A498 renal, 1380 nM; in the assay on PC-3 prostate, 2.54 µM. Besides, the GI50 in the assay with MALME-3M melanoma is 1900 nM; in the assay with NCI-H226 lung, 1.99 µM; with IGROV1 ovarian, 1420 nM; with UO-31 renal it was 11.3 µM. Besides, the TGI with MOLT-4 leukemia was 54.1 µM; with OVCAR-8 ovarian, 13.5 µM; in the assay with NCI-H522 lung, 12 µM; in the assay with SN12C renal it was more than 100 µM; with A498 renal, 6.75 µM; in the assay with PC-3 prostate it was 18.8 µM. Further, the TGI turned out to be 9.46 µM in the assay on MALME-3M melanoma, 21.4 µM with NCI-H226 lung, 10.5 µM in the assay with IGROV1 ovarian and 77.9 µM with UO-31 renal.

In the case of `O=C1NC(c2ccccc2Cl)Nc2ccccc21` (centres undefined), the TGI in the assay with MOLT-4 leukemia is more than 94.4 µM; in the assay with OVCAR-8 ovarian, more than 100 µM; with NCI-H522 lung, 72.1 µM; in the assay on SN12C renal, more than 100 µM; in the assay with A498 renal, more than 100 µM; with PC-3 prostate, more than 72.6 µM. Besides, the TGI in the assay on MALME-3M melanoma was more than 100 µM; in the assay on NCI-H226 lung, more than 84.6 µM; in the assay with IGROV1 ovarian, more than 100 µM; with UO-31 renal it was more than 100 µM.

For `CNS(=O)(=O)Nc1nccc(Cc2c(C)c3ccc(Oc4ncccn4)cc3oc2=O)c1F`, the GI50 with MOLT-4 leukemia is 53.4 µM and > 10 µM; in the assay with OVCAR-8 ovarian, 33.8 µM and > 10 µM; in the assay with NCI-H522 lung it was 22.3 µM and > 10 µM; in the assay with SN12C renal, 13.1 µM and > 8.08 µM; in the assay on A498 renal, 42.4 nM and 45.9 nM; with PC-3 prostate, more than 100 µM. The GI50 was < 10 nM and 2.11 nM in the assay with MALME-3M melanoma; 6.82 µM and > 10 µM in the assay with NCI-H226 lung; 938 nM and 95.5 nM in the assay on IGROV1 ovarian. Further, the TGI in the assay on MOLT-4 leukemia is more than 100 µM; with OVCAR-8 ovarian, more than 100 µM; in the assay on NCI-H522 lung it was more than 100 µM; in the assay on SN12C renal it was more than 100 µM; in the assay on A498 renal, 1.38 µM and 0.531 µM; in the assay on PC-3 prostate, more than 100 µM. Further, the TGI in the assay with MALME-3M melanoma is 0.0401 µM and 0.0217 µM; in the assay on NCI-H226 lung, more than 100 µM; with IGROV1 ovarian, more than 100 µM; in the assay on UO-31 renal it was more than 100 µM.

As to `C=C(C)c1nc(Oc2ccccc2)nc(Oc2ccccc2)n1`, the TGI in the assay on MOLT-4 leukemia was determined as 1.69 µM; in the assay on OVCAR-8 ovarian, 24.4 µM; in the assay on NCI-H522 lung it was 2.73 µM; in the assay on SN12C renal, 16.4 µM; in the assay with A498 renal, 31.1 µM; in the assay on PC-3 prostate it was 27.8 µM. In addition, the TGI in the assay on MALME-3M melanoma came out at 27.6 µM; in the assay with NCI-H226 lung it was 36.7 µM; in the assay with IGROV1 ovarian, 22.4 µM; with UO-31 renal, 32.1 µM.

Regarding `OC[C@H]1C[C@](O)(c2ccc(F)cc2)[C@@H](c2ccc(F)cc2)O1`, the GI50 is more than 100 µM in the assay with MOLT-4 leukemia; more than 100 µM in the assay with OVCAR-8 ovarian; more than 100 µM in the assay with NCI-H522 lung; more than 100 µM in the assay on SN12C renal; more than 100000 nM with A498 renal; more than 100 µM in the assay on PC-3 prostate. The GI50 is more than 100000 nM in the assay with MALME-3M melanoma, more than 100 µM in the assay with NCI-H226 lung, 58300 nM with IGROV1 ovarian and more than 100 µM in the assay on UO-31 renal. For the same compound, the TGI in the assay on MOLT-4 leukemia, in the assay on OVCAR-8 ovarian, in the assay with NCI-H522 lung, with SN12C renal, in the assay with A498 renal and in the assay on PC-3 prostate was more than 100 µM in each case. The TGI in the assay on MALME-3M melanoma, in the assay with NCI-H226 lung, in the assay with IGROV1 ovarian and in the assay on UO-31 renal was more than 100 µM each time.

Turning to `COc1cc(/C=C/C(=O)c2nc3cc(F)ccc3nc2C)cc(OC)c1OC`, the GI50 in the assay with MOLT-4 leukemia is 1.99 µM; with OVCAR-8 ovarian, 5.38 µM; in the assay with NCI-H522 lung, 6.98 µM; in the assay on SN12C renal it was 6.3 µM; in the assay on A498 renal, 5780 nM; in the assay on PC-3 prostate it was 6.05 µM. Also, the GI50 with MALME-3M melanoma is 1710 nM; in the assay with NCI-H226 lung it was more than 100 µM; in the assay on IGROV1 ovarian, 11400 nM; in the assay with UO-31 renal, 7.07 µM. The TGI is more than 22.3 µM in the assay on MOLT-4 leukemia; more than 100 µM in the assay on OVCAR-8 ovarian; more than 100 µM with NCI-H522 lung; more than 100 µM in the assay on SN12C renal; more than 100 µM with A498 renal; more than 100 µM in the assay on PC-3 prostate. For the same compound, the TGI with MALME-3M melanoma, with NCI-H226 lung, with IGROV1 ovarian and with UO-31 renal was more than 100 µM in each case.
